Data: US20080021054A1, “COMPOSITIONS AND TREATMENTS FOR INHIBITING KINASE AND/OR HMG-COA REDUCTASE” (priority 2004, published 2008)
Values joined by “and” are separate entries in the source; they are usually repeats but may differ in a detail not shown here. Equal values may be shown once.

System: oxazolone-induced mouse ear swelling
Experiment: Model for inhibition of topical inflammation (oxazolone-induced mouse ear swelling)
Format: in vivo, BALB/c male mice
Conditions: topical to right ear, ear thickness 24 hours after oxazolone challenge
Procedure: Left ears were untreated. The thickness of both ears of each animal was measured with a Dyer model micrometer gauge 24 hours after oxazolone challenge, and the net increase in thickness of right ears versus left ears was calculated for each animal. Percent inhibition was calculated according to the formula: [(Iv-It)/Iv]×100, where Iv and It respectively refer to the average net increase in right ear thickness (mm) for vehicle and candidate compound treated mice.

| Structure (SMILES) | % Inh. (dose 2 × 0.3 mg) [%] | % Inh. (dose 2 × 0.3 mg, listed as atorvastatin lactone) | % Inh. (dose 2 × 1 mg) [%] | % Inh. (dose 2 × 2 mg) [%] |
| --- | --- | --- | --- | --- |
| CC(C)c1c(C(=O)Nc2ccccc2)c(-c2ccccc2)c(-c2ccc(F)cc2)n1CC[C@@H]1C[C@@H](O)CC(=O)O1 [Atorvastatin lactone] | 40 | 50% and 58% and 40% | 58 | 50 |
| CC(C)c1c(C(=O)Nc2ccccc2)c(-c2ccccc2)c(-c2ccc(F)cc2)n1CC[C@@H](O)C[C@@H](O)CC(=O)O [Atorvastatin sodium] | 9 |  | 31 | 63 |
| CC(C)n1c(/C=C/C(O)CC(O)CC(=O)O)c(-c2ccc(F)cc2)c2ccccc21 (stereo not shown) [Fluvastatin sodium] | 28 |  |  |  |
| COc1ccc2c(c1)c(CC(=O)O)c(C)n2C(=O)c1ccc(Cl)cc1 [Indomethacin] | 44 |  |  |  |
| O=C([O-])C[C@H](O)C[C@H](O)/C=C/c1c(C2CC2)nc2ccccc2c1-c1ccc(F)cc1.O=C([O-])C[C@H](O)C[C@H](O)/C=C/c1c(C2CC2)nc2ccccc2c1-c1ccc(F)cc1.[Ca+2] [Pitavastatin calcium] | 9 |  |  | 60 |
| CC[C@H](C)C(=O)O[C@H]1C[C@H](O)C=C2C=C[C@H](C)[C@H](CC[C@@H](O)C[C@@H](O)CC(=O)O)[C@H]21 [Pravastatin sodium] | 24 |  |  |  |
| CC(C)c1nc(N(C)S(C)(=O)=O)nc(-c2ccc(F)cc2)c1/C=C/[C@@H](O)C[C@@H](O)CC(=O)O [Rosuvastatin sodium] | 20 |  |  |  |
